From patent publication US20190209506A1, “METHODS OF REDUCING OR PREVENTING OXIDATION OF LDL OR LIPID MEMBRANES IN A SUBJECT IN NEED THEREOF” (Amarin Pharmaceuticals Ireland Limited, priority 2018, published 2019)

Key:
[1] = Glucose- and peroxidation-induced cholesterol domain formation, small angle x-ray diffraction (Example 4); details: 1:30 drug-to-phospholipid, glucose 200 mg/dL
Method: Samples were shell-dried under nitrogen gas and placed under vacuum for 1 h to remove residual solvent. […] Lipid suspensions were then vortexed for 3 min at ambient temperature to form MLVs. […] Membrane lipid vesicles were oriented for x-ray diffraction analysis as described by others (e.g., Herbette et al., Biophys. […] Briefly, a 100 μL aliquot (containing 250 μg MLV) was aspirated from each sample and transferred to a Lucite® sedimentation cell fitted with an aluminum foil substrate upon which a given sample could be collected by centrifugation. Samples were then loaded into a Sorvall AH-629 swinging bucket rotor (DuPont Corp., Wilmington, Del.) and centrifuged at 35,000 g, 5° C., for 90 min. After centrifugal orientation, sample supernatants were aspirated and aluminum foil substrates, each supporting a single membrane pellet, were removed from the sedimentation cells. […] The d-space for any given membrane multibilayer is a measurement of the unit cell periodicity of the membrane lipid bilayer (e.g., the distance from the center of one lipid bilayer to the next including surface hydration), and is calculated from Bragg's Law, […], where h is the diffraction order, λ is the wavelength of the x-ray radiation (1.54 Å), d is the membrane lipid bilayer unit cell periodicity, and θ is the Bragg angle equal to one-half the angle between the incident beam and scattered beam. […]

human sdLDL = test: Copper-induced sdLDL oxidation, TBARS after 2 hr (Example 6); assay type: biochemical
Method: (§1) Venous blood was collected from healthy volunteers into vacutainer tubes containing sodium EDTA. Plasma was separated by centrifugation at 3000 g for 25 min at 4° C. and adjusted to a density of 1.020 g/mL with KBr. Triglyceride-rich lipoproteins (TGRL) and LDL fractions were then isolated by sequential centrifugation at 70,000 rpm at 4° C. in a Beckman LE-80 ultracentrifuge using a Beckman 50.4Ti rotor (Beckman Coulter, Inc., Fullerton, Calif.). The TGRL fraction (with a relative density of <1.020) was aspirated from the top of the centrifugate and discarded, leaving an LDL-enriched infranate (with a relative density of 1.020 to 1.063). The plasma LDL fraction was further fractionated into LDL1, LDL2, LDL3, and LDL4 (sdLDL) subfractions with relative densities of 1.020 to 1.035, 1.035 to 1.050, 1.050 to 1.063, and 1.063 to 1.075, respectively. The sdLDL subfraction was retained for additional experimentation. Plasma and lipoprotein fractions were maintained at 4° C. and protected from excessive exposure to light. Prior to oxidation experiments, EDTA was removed from the lipoprotein fraction using PD-10 desalting columns (GE Healthcare, Piscataway N.J.). After equilibration of the column with phosphate buffered saline (PBS), 2.5 mL of the lipoprotein fraction was loaded on the column and the flow-through discarded. The lipoprotein was then eluted with 3 mL of PBS. The LDL fractions were further diluted with PBS to obtain a 100 μg/mL apoB100 concentration.
LDL and sdLDL subfractions (0.6 mL each) were incubated with either 10 μL vehicle (ethanol) or 10 μL drug stock solution for 30 min to 1 hr at 37° C. Oxidation was initiated by the addition of 10 μM CuSO4. After 2 hr, 100 μL aliquots were removed from each subfraction and combined with 1.0 mL thiobarbituric acid (0.5%), 10 μL trichloroacetic acid (5%), 10 μL BHT (5 mg/mL in methanol), and 10 μL EDTA (5 mM). […]. Sample TBARS concentrations were determined spectrophotometrically by measuring sample absorbances against a standard curve derived from the hydrolysis of 1,1,3,3-tetramethoxypropane.

human LDL = test: Copper-induced oxidation of unfractionated LDL, TBARS after 2 hr (Example 6); assay type: biochemical
Method: as §1, with “Prior to oxidation experiments, EDTA was removed from the lipoprotein fraction using PD-10 desalting columns (GE Healthcare, Piscataway N.J.). After equilibration of the column with phosphate buffered saline (PBS), 2.5 mL of the lipoprotein fraction was loaded on the column and the flow-through discarded. The lipoprotein was then eluted with 3 mL of PBS. The LDL fractions were further diluted with PBS to obtain a 100 μg/mL apoB100 concentration.” left out
LDL and sdLDL subfractions (0.6 mL each) were incubated with either 10 μL vehicle (ethanol) or 10 μL drug stock solution for 30 min to 1 hr at 37° C. […] Sample TBARS concentrations were determined spectrophotometrically by measuring sample absorbances against a standard curve derived from the hydrolysis of 1,1,3,3-tetramethoxypropane.

In the case of `CC/C=C\C/C=C\C/C=C\C/C=C\C/C=C\CCCC(=O)O` [EPA, cis-5,8,11,14,17-eicosapentaenoic acid], the “inhibition of relative cholesterol domain peak intensity” value ([1]; 96-hour time point, vs vehicle or vitamin E) was “more than 99%”, the “reduction of TBARS levels compared to vehicle-treated controls” value (from here on “reduction … to vehicle-treated controls”) (human sdLDL; 10.0 μM) was 57% and the “reduction … to vehicle-treated controls” value (human sdLDL; lowest dose tested (1.0)) was 13%. The “reduction of TBARS levels” value (human LDL; highest concentration tested (10.0), unfractionated LDL) was 17%.

In the case of `Cc1c(C)c2c(c(C)c1O)CC[C@@](C)(CCC[C@H](C)CCC[C@H](C)CCCC(C)C)O2` [vitamin E, α-tocopherol, reference compound], the “effect on cholesterol domain formation compared to control” value ([1]; any experimental time point) was “no significant effect on cholesterol domain formation”, the “reduction … to vehicle-treated controls” value (human sdLDL; 10.0 μM) was 26% and the “effect on sdLDL oxidation” value (human sdLDL; concentrations 1.0 μM to 10.0 μM) was “did not inhibit sdLDL oxidation except at the highest concentration”. The “effect on LDL oxidation” value (human LDL; 1.0 μM to 10.0 μM, data not shown) was “did not inhibit LDL oxidation at any concentration”.
